Results: ChEMBL document CHEMBL1201862, “PubChem BioAssay data set” (2004)
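Dose response: 5 concentrations. Exposure: 48 h. Format: 96-well plates. Endpoint: linear interpolation; highest concentration if not reached. GI50 is the concentration that inhibits growth by half.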 Calls of active or inactive are those of the source. Cut-off read from the data, not from the text of the source: active = GI50 up to about 1.1 µM and inactive = higher.

What was measured:
Test in all cases: NCI-60 cell line screen, 48 h
[1] = test system: TK-10
[2] = test system: HL-60
[3] = test system: Malme-3M
[4] = test system: RXF 393
[5] = test system: OVCAR-4
[6] = test system: RPMI-8226
[7] = test system: HOP-62
[8] = test system: NCI-H460
[9] = test system: HCT-15
[10] = test system: A498
[11] = test system: IGROV-1
[12] = test system: BT-549
[13] = test system: UACC-62
[14] = test system: SF-539
[15] = test system: MDA-MB-435
[16] = test system: K562
[17] = test system: CCRF-CEM
[18] = test system: CAKI-1
[19] = test system: 786-0
[20] = test system: KM12
[21] = test system: DU-145
[22] = test system: LOX IMVI
[23] = test system: SW-620
[24] = test system: COLO 205
[25] = test system: HCC 2998
[26] = test system: SN12C
[27] = test system: OVCAR-8
[28] = test system: A549
[29] = test system: NCI-H522
[30] = test system: ACHN
[31] = test system: PC-3
[32] = test system: NCI-H23
[33] = test system: M14
[34] = test system: OVCAR-3
[35] = test system: U-251
[36] = test system: T47D
[37] = test system: SF-268
[38] = test system: SR
[39] = test system: MDA-N
[40] = test system: SF-295
[41] = test system: EKVX
[42] = test system: NCI/ADR-RES
[43] = test system: SK-MEL-5
[44] = test system: SK-MEL-28
[45] = test system: NCI-H226
[46] = test system: SK-MEL-2
[47] = test system: OVCAR-5
[48] = test system: SK-OV-3
[49] = test system: UACC-257
[50] = test system: MOLT-4
[51] = test system: MCF7
[52] = test system: HCT-116
[53] = test system: SNB-19
[54] = test system: HT-29
[55] = test system: UO-31
[56] = test system: HOP-92
[57] = test system: MDA-MB-231
[58] = test system: SNB-75
[59] = test system: Hs-578T

COC(=O)C1=C(C)NC(C)=C(C(=O)OC)C1c1cccc(N=O)c1
GI50 [1]: 15 µM (inactive)
GI50 [2]: 3.85 µM (inactive)
GI50 [3]: 15.4 µM (inactive)
GI50 [4]: 13.3 µM (inactive)
GI50 [5]: 13.1 µM (inactive)
GI50 [6]: 4.53 µM (inactive)
GI50 [7]: 21.1 µM (inactive)
GI50 [8]: 16 µM (inactive)
GI50 [9]: 17.8 µM
GI50 [10]: 35 µM (inactive)
GI50 [11]: 17 µM (inactive)
GI50 [12]: 17 µM (inactive)
GI50 [13]: 14.3 µM (inactive)
GI50 [14]: 19.1 µM (inactive)
GI50 [15]: 16.1 µM (inactive)
GI50 [16]: 4.69 µM (inactive)
GI50 [17]: 3.55 µM (inactive)
GI50 [18]: 10.6 µM (inactive)
GI50 [19]: 16.7 µM (inactive)
GI50 [20]: 16.6 µM (inactive)
GI50 [21]: 15.8 µM (inactive)
GI50 [22]: 17.4 µM (inactive)
GI50 [23]: 4.78 µM (inactive)
GI50 [24]: 18.5 µM (inactive)
GI50 [25]: 22.3 µM (inactive)
GI50 [26]: 18.8 µM (inactive)
GI50 [27]: 15 µM (inactive)
GI50 [28]: 31.8 µM (inactive)
GI50 [29]: 3.18 µM (inactive)
GI50 [30]: 14.5 µM (inactive)
GI50 [31]: 17.8 µM (inactive)
GI50 [32]: 19.5 µM (inactive)
GI50 [33]: 13.9 µM (inactive)
GI50 [34]: 15.7 µM (inactive)
GI50 [35]: 17 µM (inactive)
GI50 [36]: 11.6 µM (inactive)
GI50 [37]: 17 µM (inactive)
GI50 [38]: 5.41 µM (inactive)
GI50 [39]: 13.3 µM (inactive)
GI50 [40]: 52.8 µM (inactive)
GI50 [41]: 20.1 µM (inactive)
GI50 [42]: 22.5 µM (inactive)
GI50 [43]: 16.3 µM (inactive)
GI50 [44]: 16.7 µM (inactive)
GI50 [45]: 16.3 µM (inactive)
GI50 [46]: 15.6 µM (inactive)
GI50 [47]: 18 µM (inactive)
GI50 [48]: 25.4 µM (inactive)
GI50 [49]: 16.6 µM (inactive)
GI50 [50]: 4.76 µM (inactive)
GI50 [51]: 18.4 µM (inactive)
GI50 [52]: 11 µM (inactive)
GI50 [53]: 75.5 µM (inactive)
GI50 [54]: 16.3 µM (inactive)
GI50 [55]: 8.38 µM (inactive)
GI50 [56]: 7.69 µM (inactive)
GI50 [57]: 14.4 µM (inactive)

COc1cccc(CC2C(=O)N/C(=N\C(C)=O)N2C)c1OC(C)=O (stereo not drawn)
GI50 [1]: > 100 µM (inactive)
GI50 [2]: > 100 µM (inactive)
GI50 [4]: > 100 µM (inactive)
GI50 [5]: > 100 µM (inactive)
GI50 [7]: > 100 µM (inactive)
GI50 [8]: > 100 µM (inactive)
GI50 [9]: > 100 µM
GI50 [11]: > 100 µM (inactive)
GI50 [12]: > 100 µM (inactive)
GI50 [13]: > 100 µM (inactive)
GI50 [14]: > 100 µM (inactive)
GI50 [15]: > 100 µM (inactive)
GI50 [17]: > 100 µM (inactive)
GI50 [58]: > 100 µM (inactive)
GI50 [18]: > 100 µM (inactive)
GI50 [19]: > 100 µM (inactive)
GI50 [20]: > 100 µM (inactive)
GI50 [21]: > 100 µM (inactive)
GI50 [22]: > 100 µM (inactive)
GI50 [23]: > 100 µM (inactive)
GI50 [24]: > 100 µM (inactive)
GI50 [25]: > 100 µM (inactive)
GI50 [26]: > 100 µM (inactive)
GI50 [27]: > 100 µM (inactive)
GI50 [28]: > 100 µM (inactive)
GI50 [29]: > 100 µM (inactive)
GI50 [30]: > 100 µM (inactive)
GI50 [31]: > 100 µM (inactive)
GI50 [32]: > 100 µM (inactive)
GI50 [33]: > 100 µM (inactive)
GI50 [34]: > 100 µM (inactive)
GI50 [35]: > 100 µM (inactive)
GI50 [37]: > 100 µM (inactive)
GI50 [39]: > 100 µM (inactive)
GI50 [40]: > 100 µM (inactive)
GI50 [41]: 44 µM (inactive)
GI50 [42]: > 100 µM (inactive)
GI50 [43]: > 100 µM (inactive)
GI50 [44]: 39 µM (inactive)
GI50 [59]: > 100 µM (inactive)
GI50 [45]: > 100 µM (inactive)
GI50 [46]: > 100 µM (inactive)
GI50 [47]: > 100 µM (inactive)
GI50 [48]: > 100 µM (inactive)
GI50 [49]: > 100 µM (inactive)
GI50 [50]: > 100 µM (inactive)
GI50 [51]: > 100 µM (inactive)
GI50 [52]: > 100 µM (inactive)
GI50 [53]: > 100 µM (inactive)
GI50 [54]: > 100 µM (inactive)
GI50 [55]: > 100 µM (inactive)
GI50 [56]: > 100 µM (inactive)
GI50 [57]: > 100 µM (inactive)

CCN(CC)c1ccc2cc(C(=O)Nc3ccccn3)c(=N)oc2c1
GI50 [2]: > 100 µM (inactive)
GI50 [3]: 60.3 µM (inactive)
GI50 [4]: 47.9 µM (inactive)
GI50 [5]: > 100 µM (inactive)
GI50 [6]: > 100 µM (inactive)
GI50 [7]: 22.9 µM (inactive)
GI50 [8]: > 100 µM (inactive)
GI50 [9]: > 100 µM
GI50 [10]: > 100 µM (inactive)
GI50 [11]: > 100 µM (inactive)
GI50 [12]: > 100 µM (inactive)
GI50 [13]: 30.3 µM (inactive)
GI50 [14]: 43.5 µM (inactive)
GI50 [15]: > 100 µM (inactive)
GI50 [16]: > 100 µM (inactive)
GI50 [17]: > 100 µM (inactive)
GI50 [58]: 28.5 µM (inactive)
GI50 [18]: > 100 µM (inactive)
GI50 [19]: 35.3 µM (inactive)
GI50 [20]: > 100 µM (inactive)
GI50 [21]: > 100 µM (inactive)
GI50 [22]: 71.1 µM (inactive)
GI50 [23]: > 100 µM (inactive)
GI50 [24]: > 100 µM (inactive)
GI50 [25]: > 100 µM (inactive)
GI50 [26]: > 100 µM (inactive)
GI50 [27]: 36.3 µM (inactive)
GI50 [28]: > 100 µM (inactive)
GI50 [30]: 26.9 µM (inactive)
GI50 [32]: 37.8 µM (inactive)
GI50 [33]: > 100 µM (inactive)
GI50 [34]: > 100 µM (inactive)
GI50 [35]: 37.9 µM (inactive)
GI50 [36]: 99.8 µM (inactive)
GI50 [37]: 60.8 µM (inactive)
GI50 [38]: > 100 µM (inactive)
GI50 [39]: > 100 µM (inactive)
GI50 [41]: > 100 µM (inactive)
GI50 [42]: 85.3 µM (inactive)
GI50 [43]: > 100 µM (inactive)
GI50 [44]: > 100 µM (inactive)
GI50 [59]: 32.1 µM (inactive)
GI50 [45]: > 100 µM (inactive)
GI50 [46]: 25.5 µM (inactive)
GI50 [47]: 80.2 µM (inactive)
GI50 [48]: 52 µM (inactive)
GI50 [49]: > 100 µM (inactive)
GI50 [50]: > 100 µM (inactive)
GI50 [52]: 55.5 µM (inactive)
GI50 [53]: 19.1 µM (inactive)
GI50 [54]: 32.2 µM (inactive)
GI50 [56]: > 100 µM (inactive)
GI50 [57]: 47.5 µM (inactive)
